# Measured values as given in patent US7915005B2, “Methods for detecting sleepiness” (Washington University in St. Louis, priority 2005, dated 2011).
# Entries after “also recorded” stand apart in the source; their conditions may differ. Where two headings read alike, the source gives them in different places.
# Key:
# [1] = system: wild-type flies; conditions: literature and unpublished data; cited from earlier work
# [2] = system: Amy/Luc flies; assay: Bioluminescence recording in Amy/Luc flies (amylase promoter linked to firefly luciferase); type: in vivo, Drosophila melanogaster; conditions: caffeine 2.5 mg/ml from the morning after a full night's sleep, recorded 12 h, n=9
# Procedure: Prior to luminescence recordings, sleep was evaluated for 2 days in female Amy/Luc flies as described above with the exception that they were maintained on 0.5% sucrose supplemented with 1 mM beetle luciferin (Promega, Madison Wis.). On day 3, flies were sleep deprived for 12 h (n=9) or served as untreated controls (n=9). Flies that were sleep deprived were removed from their 65 mm glass tubes and placed into Petri dishes with 200 μl of fresh 0.5% sucrose 1 mM beetle luciferin. Siblings that had not been sleep deprived were placed into Petri dishes with 2.5 mg/ml of caffeine added to the 0.5% sucrose 1 mM beetle luciferin. Bioluminescence was subsequently recorded in 1 min bins for 12 h under photomultiplier tubes (HC135-11MOD; Hamamatsu, Shizouka, Japan) as previously described (Abraham, U, et al., 2005. J Neurosci 25: 8620-8626). Amy/Luc flies that had never been exposed to luciferin were recorded for 12 h and served as a blank. Luminescence for SD and caffeine treated flies was subtracted from the blank and smoothed using a 3 h running average. Two independent replicates were conducted.
# To determine whether amylase can provide an assessment of sleep drive in real-time, a Drosophila line in which the promoter for amylase was linked to the firefly luciferase (Amy/Luc) was evaluated (Hickey, D A, et al., 1994. Proc Natl Acad Sci USA 91: 11109-11112). […]
# [3] = system: Amylase mRNA (CG18640); assay: qPCR of Amylase (CG18640) mRNA from whole heads after drug-induced waking; type: in vivo, Drosophila melanogaster; conditions: wild-type fly heads, immediately after 14 h of drug-induced waking; caffeine 2.5 mg/mL, methamphetamine 1 mg/ml
# Procedure: (§1) Pharmacological studies were conducted on female Canton-s flies. Three-day old Cs female flies were individually placed into 65 mm glass tubes in the Trikinetics activity monitoring system and evaluated for two days under LD. […] All groups had similar amounts of baseline sleep. In all cases, the drug was dissolved in food along with an inert dye. It could be determined, therefore, if the fly had ingested the drug not only by its behavior, but also by observing the dye in its abdomen. The following morning, after 14 h of drug treatment, two thirds of the flies from each group were frozen and RNA was extracted from whole heads and the amount of dye in the abdomen was evaluated. The remaining one third of the flies were monitored for an additional 24 h to assay the size of the homeostatic response.
# Total RNA was isolated from fly heads using Trizol (Invitrogen, Carlsbad, Calif.) following the manufacturers protocol. […] Values were expressed as a percentage of untreated animals and were evaluated using a one-way ANOVA.
# (§2) Sustained periods of waking in the fly can be induce pharmacologically (Hendricks, J C et al., 2000. Neuron 25: 129-138; Shaw, P J et al., 2000. Science 287: 1834-1837). […] Therefore wild-type flies were exposed to either caffeine or methamphetamine for 14 h and evaluated the magnitude of the homeostatic response. […]
# [4] = system: wild-type flies; assay: Pharmacologically induced waking in flies (Trikinetics activity monitoring); type: in vivo, Drosophila melanogaster; conditions: drug dissolved in food
# Procedure: (§3) Three day old female flies were placed in 65 mm glass tubes and sleep parameters were continuously evaluated throughout all experiments using the Trikinetics activity monitoring system as previously described (Shaw, P J et al., 2000. Science 287: 1834-1837; Shaw, P J et al., 2002. Nature 417: 287-291) (www.Trikinetics.com). […] Three independent replicates of 32 flies were conducted for each time point. Following SD, two thirds of the flies from each group were frozen and RNA was extracted from whole heads. The remaining one third of the flies were monitored for an additional 24 h to assay the size of the homeostatic response. Using this protocol, both gene expression and behavior can be evaluated in siblings that have been exposed to identical environments and experimental manipulations.
# Pharmacological studies were conducted on female Canton-s flies. Three-day old Cs female flies were individually placed into 65 mm glass tubes in the Trikinetics activity monitoring system and evaluated for two days under LD. […] It could be determined, therefore, if the fly had ingested the drug not only by its behavior, but also by observing the dye in its abdomen. The following morning, after 14 h of drug treatment, two thirds of the flies from each group were frozen and RNA was extracted from whole heads and the amount of dye in the abdomen was evaluated. […]
# [5] = system: wild-type flies; assay: Homeostatic response (sleep recovered) in the 24 h after 14 h of drug-induced waking; type: in vivo, Drosophila melanogaster; conditions: for homeostatic response / compensation for sleep lost during drug-induced waking: 14 h on drug, 24 h recovery, caffeine 2.5 mg/ml, methamphetamine 1 mg/ml
# Procedure: as §3, §1
# as §2, with “response. As above, gene expression was evaluated using qPCR and one third of the flies were allowed to recover for 24 h after drug removal and regular food was restored.” for “response.”
# [6] = system: flies; conditions: 20 μM paraquat, exposures longer than 16 h; Shaw et al. 2002; cited from earlier work
# [7] = system: amylase activity; assay: Amylase activity in fly homogenates after paraquat stress (Infinity Amylase reagent); type: in vivo, Drosophila melanogaster; conditions: Cs female flies, 20 μM paraquat in 1% agar 5% sucrose for 16 h
# Procedure: Amylase activity was evaluated following 28 h of sleep deprivation in Cs flies to match the duration of waking used in the human experiments. Female Cs flies were sleep deprived for 28 h beginning at lights out (8 pm). Whole body homogenates were extracted from 4 groups of 5 flies and compared to untreated circadian-matched controls; experiments were conducted in duplicate. Amylase activity was determined using the Infinity Amylase reagent (TR25421; Thermo Electron Corp, Louisville, Co., USA) according to the manufacturer's instructions. All samples were assayed in quadruplicate. To evaluate the effects of stress on amylase activity, Cs females were placed onto 20 μM paraquat dissolved in 1% agar 5% sucrose for 16 h and sacrificed at the same circadian time as the 28 h SD flies and their controls.
SMILES,waking produced by the drug [1],Amylase (CG18640) mRNA expression vs. untreated controls [3],waking produced by the drug [4],homeostatic response / compensation for sleep lost during drug-induced waking [5],other results
CC(N)Cc1ccccc1 (stereo not shown) [amphetamine],produce waking,–,–,–,–
Cn1c(=O)c2c(ncn2C)n(C)c1=O [caffeine],–,strongly activated; also recorded: exhibit significant increases in Amylase mRNA; also recorded: elevated,produce sustained periods of waking,exhibit a rebound of similar magnitude as that seen following manual SD,"bioluminescence (counts/min) in Amy/Luc flies [2]: increased as the animals spent more time on caffeine; also recorded: progressive increase in bioluminescence; lost sleep recovered ([5]; 14 h of caffeine-induced waking, FIG. 5A): 30-50%"
C[n+]1ccc(-c2cc[n+](C)cc2)cc1 [paraquat],–,–,–,–,lethality on paraquat [6]: flies begin to die during longer exposures; amylase activity [7]: did not alter Amylase activity
CN[C@@H](C)Cc1ccccc1 [methamphetamine],–,not activated; also recorded: do not induce Amylase mRNA; also recorded: not after waking induced by methamphetamine,produce sustained periods of waking,do not compensate for the lost sleep; also recorded: do not induce a homeostatic response,–
NC(=O)C[S+]([O-])C(c1ccccc1)c1ccccc1 (stereo not shown) [modafinil],produce waking,–,–,–,–
COC(=O)C(c1ccccc1)C1CCCCN1 (stereo not shown) [methylphenidate],produce waking,–,–,–,–
